# Measurements reported in US4317817A, “Novel steroid 5α-reductase inhibitors” (Richardson-Merrell Inc., priority 1980, dated 1982).
# Columns and labels:
# [1] = system: testosterone 5α-reductase; assay: Inhibition of 5α-reductase isolated from rat prostate gland (prostate microsomes, 4-14C-testosterone); type: biochemical; details: testosterone 2×10^-6 M, microsomes equivalent to 180 mg fresh tissue
# preputial glands = assay: Preputial gland weight in castrated male rats treated with testosterone; type: in vivo; details: 200 mg/kg gavage every 8 hours for 8 days plus testosterone 0.6 mg/rat s.c. daily; compared to control rats
# ventral prostate = assay: Prostate weight in castrated male rats treated with testosterone (benign prostatic hypertrophy procedure); type: in vivo; details: 200 mg/kg gavage every 8 hours for 8 days plus testosterone 0.6 mg/rat s.c. daily; compared to testosterone only (Group II)
# Description: The effectiveness of the present compounds for the treatment of benign prostatic hypertrophy can be illustrated by the following procedure using 3 groups of castrated male rats. Starting 10 days after castration, Test Group I (5 animals) received 200 mg/kg of (5α,20R) -4-diazo-21-hydroxy-20-methylpregnan-3-one, given by gavage every 8 hours for 8 days as a suspension in 0.25 % aqueous Methocel. Starting 8 hours after the first dose of test compound, the animals also received testosterone daily at a dose of 0.6 mg/rat s.c. in olive oil. The last dose of test compound was administered 8 hours after the last dose of testosterone and the animals were sacrificed 8 hours later. Test Group II (12 animals) received only the testosterone treatment described above while the third group of rats (10 animals) served as controls and received the oral and s.c. vehicles only. At sacrifice, the ventral prostate was removed and weighed.
# 5α-reductase = assay: Affinity (Ki, Km) for 5α-reductase; type: biochemical
# Description: The potency of any enzyme inhibitor is often expressed in terms of its inhibition constant, Ki, which is defined mathematically in terms of established relationships of enzyme-catalyzed reaction rates to inhibitor and substrate concentrations. […] In the case of the substrate, the corresponding value is known as the Km, the relationship to combining power being roughly the same.
structure (smiles),measurement,setting,value
"C[C@@H](CO)[C@H]1CC[C@H]2[C@@H]3CC[C@H]4C(=[N+]=[N-])C(=O)CC[C@]4(C)[C@H]3CC[C@]12C [(5α,20R)-4-Diazo-21-hydroxy-20-methylpregnan-3-one]",inhibition of the conversion of testosterone to 5α-reduced products,[1]; inhibitor 3×10^-7 M,75%
same,inhibition of the conversion of testosterone to DHT and androstanediol (ADIOL) overall,[1]; inhibitor 3×10^-8 M,49%
same,weights of preputial glands,preputial glands,significantly less than weights of preputial glands of the control rats
same,prostatic weight (ventral prostate),ventral prostate,significant reduction in prostatic weight
CC(CO)[C@H]1CC[C@H]2[C@@H]3CCC4=CC(=O)CC[C@]4(C)[C@H]3CC[C@]12C (stereo partly drawn) [reference compound],Ki,5α-reductase,220 nM
"C[C@]12CC[C@H]3[C@@H](CCC4=CC(=O)CC[C@@]43C)[C@@H]1CC[C@@H]2O [testosterone, reference compound]",Km,5α-reductase; substrate,1 µM
C[C@H](CO)[C@H]1CC[C@H]2[C@@H]3CC[C@H]4C(=[N+]=[N-])C(=O)CC[C@]4(C)[C@H]3CC[C@]12C,Ki,5α-reductase,35 nM
same,affinity for the enzyme relative to the substrate (testosterone),5α-reductase; vs Km of testosterone,29 times
same,potency relative to the previous inhibitor,5α-reductase; vs previously known inhibitor of the comparison,6.3 times
